Test results reported in patent publication EP3074389B1, “QUINOLINE DERIVATIVES AS BROMODOMAIN INHIBITORS” (Gilead Sciences, Inc., priority 2013, dated 2015).

Columns and labels:
BRD4 domain 1 = BRD4 domain 1 (Homo sapiens, UniProt O60885); assay: Kd determination of inhibitors binding to BRD4 domain 1 (Epic label-free platform); conditions: direct binding to immobilized BRD4 domain 1; tripling dilution series from 20µM; about 1hr equilibrium; rounded to whole number; read-out: Epic Kd BRD41
Experimental: (§1) Kd Determination of Inhibitors Binding to BRD4 Domain 1 and Domain 2
(§2) The binding of small molecule inhibitors to either BRD4 domain 1 or domain 2 were determined using the Epic, high-throughput, label-free platform (Corning, Lowell, MA). The Epic instrument incorporates an evanescent waveguide sensor within each well of its proprietary 384-well microplates. Direct binding of inhibitors to BRD4 immobilized onto the microplate well surface can be detected by exposing the waveguide to a broadband light source. The resulting resonant wavelength shift (measured in picometers (pm)) is proportional to the mass bound to the surface. Epic biochemical plates (Corning, Lowell, MA) were activated by adding 15 µL/well of 200 mM EDC and 50 mM Sulfo-NHS (Pierce Thermo Scientific, Rockford, IL) and incubated for 60 minutes at room temperature. Plates were washed three times with MilliQ water and dried by centrifugation (1 minute at 400 rpm). BRD4 immobilization was accomplished by resuspending the protein at a concentration of 150 µg/mL in 20 mM HEPES (pH 7) and adding 10 µL/well. […] Compound/inhibitor binding was determined by calculating difference between the baseline (first read) and second read. The resulting binding response was fitted to a single site binding isotherm in order to determine an equilibrium dissociation constant (Kd).

BRD4 domain 2 = BRD4 domain 2 (Homo sapiens, UniProt O60885); assay: Kd determination of inhibitors binding to BRD4 domain 2 (Epic label-free platform); conditions: direct binding to immobilized BRD4 domain 2; tripling dilution series from 20µM; about 1hr equilibrium; rounded to whole number
Experimental: as §1, §2

Kd (BRD4 domain 1) | Kd (BRD4 domain 2) | Compound
1.45 µM | 0.718 µM | Cc1noc(C)c1-c1cc(S(=O)(=O)NC2CCCC2)c2cc(-c3ccccn3)c(=O)[nH]c2c1 [Compound 36, N-cyclopentyl-7-(3,5-dimethylisoxazol-4-yl)-2-oxo-3-(pyridin-2-yl)-1,2-dihydroquinoline-5-sulfonamide]
0.744 µM | 0.392 µM | Cc1noc(C)c1-c1cc(S(=O)(=O)NC2CCCC2)c2cc(NCCN)c(=O)[nH]c2c1 [Compound 78, 3-((2-aminoethyl)amino)-N-cyclopentyl-7-(3,5-dimethylisoxazol-4-yl)-2-oxo-1,2-dihydroquinoline-5-sulfonamide]
12.8 µM | > 20 µM | Cc1noc(C)c1-c1cc(S(=O)(=O)NCC2CC(F)(F)C2)c2cccnc2c1 [Compound 11, N-((3,3-difluorocyclobutyl)methyl)-7-(3,5-dimethylisoxazol-4-yl)quinoline-5-sulfonamide]
9.43 µM | 5.9 µM | Cc1noc(C)c1-c1cc(S(=O)(=O)NCC2CC2)c2cccnc2c1 [Compound 15, N-(cyclopropylmethyl)-7-(3,5-dimethylisoxazol-4-yl)quinoline-5-sulfonamide]
0.253 µM | 0.241 µM | Cc1noc(C)c1-c1cc(S(=O)(=O)NC2CCCC2)c2cc(-c3cccnc3)c(=O)[nH]c2c1 [Compound 29, N-cyclopentyl-7-(3,5-dimethylisoxazol-4-yl)-2-oxo-3-(pyridin-3-yl)-1,2-dihydroquinoline-5-sulfonamide]
1.44 µM | 3.5 µM | Cc1noc(C)c1-c1cc(S(=O)(=O)NC2CCCC2)c2ccc(C3CC3)nc2c1 [Compound 4, N-cyclopentyl-2-cyclopropyl-7-(3,5-dimethylisoxazol-4-yl)quinoline-5-sulfonamide]
13.8 µM | 2.92 µM | Cc1noc(C)c1-c1cc(S(=O)(=O)NC2CC2)c2ccc(=O)[nH]c2c1 [Compound 68, N-cyclopropyl-7-(3,5-dimethylisoxazol-4-yl)-2-oxo-1,2-dihydroquinoline-5-sulfonamide]
5.87 µM | 7.99 µM | CCOC(=O)N[C@H]1CCC[C@H]1NS(=O)(=O)c1cc(-c2c(C)noc2C)cc2ncccc12 [Compound 54, ethyl ((1S,2R)-2-(7-(3,5-ditnethylisoxazol-4-yl)quinoline-5-sulfonamido)cyclopentyl)carbamate]
0.717 µM | 0.519 µM | Cc1noc(C)c1-c1cc(S(=O)(=O)NC2CCCC2)c2cc(-n3ccnc3)c(=O)[nH]c2c1 [Compound 32, N-cyclopentyl-7-(3,5-dimethylisoxazol-4-yl)-3-(1H-imidazol-1-yl)-2-oxo-1,2-dihydroquinoline-5-sulfonamide]
1.02 µM | 0.501 µM | Cc1noc(C)c1-c1cc(S(=O)(=O)NC2CCCC2)c2cc(Br)c(=O)[nH]c2c1 [Compound 22, 3-bromo-N-cyclopentyl-7-(3,5-dimethylisoxazol-4-yl)-2-oxo-1,2-dihydroquinoline-5-sulfonamide]
5.75 µM | 4.79 µM | Cc1noc(C)c1-c1cc(S(=O)(=O)N[C@@H]2CCC[C@H](O)C2)c2cccnc2c1 [Compound 20, 7-(3,5-dimethylisoxazol-4-yl)-N-((1R,3S)-3-hydroxycyclohexyl)qu inoline-5-sulfonamide]
3.48 µM | 2.46 µM | Cc1noc(C)c1-c1cc(S(=O)(=O)NC2CCCC2)c2nccnc2c1 [Compound 86, N-cyclopentyl-7-(3,5-dimethylisoxazol-4-yl)quinoxaline-5-sulfonamide]
5.48 µM | 11.1 µM | Cc1noc(C)c1-c1cc(S(=O)(=O)N[C@H]2C[C@@H](N)C2)c2cccnc2c1 [Compound 34, N-((1S,3S)-3-aminocyclobutyl)-7-(3,5-dimethylisoxazol-4-yl)quinoline-5-sulfonamide]
> 20 µM | 18.8 µM | Cc1noc(C)c1-c1cc(S(=O)(=O)NC2(C#N)CC2)c2cccnc2c1 [Compound 49, N-(1-cyanocyclopropyl)-7-(3,5-dimethylisoxazol-4-yl)quinoline-5-sulfonamide]
0.798 µM | 0.503 µM | Cc1noc(C)c1-c1cc(S(=O)(=O)NC2CCCC2)c2cc(NCCCN(C)C)c(=O)[nH]c2c1 [Compound 95, N-cyclopentyl-3-((3-(dimethylamino)propyl)amino)-7-(3,5-dimethylisoxazol-4-yl)-2-oxo-1,2-dihydroquinoline-5-sulfonamide]
10.7 µM | 8.94 µM | Cc1noc(C)c1-c1cc(S(=O)(=O)NC2CCCC2)c2cc(C(=O)N(C)C)c(=O)[nH]c2c1 [Compound 75, 5-(N-cyclopentylsulfamoyl) -7-(3,5-dimethylisoxazol-4-yl)-N,N-dimethyl-2-oxo-1,2-dihydroquinoline-3 - carboxamide]
5.56 µM | 13.4 µM | Cc1noc(C)c1-c1cc(S(=O)(=O)NC2CCC(C)(C)C2)c2cccnc2c1 (stereo not drawn) [Compound 39, N-(3,3-dimethylcyclopentyl)-7-(3,5-dimethylisoxazol-4-yl)quinoline-5-sulfonamide]
6.4 µM | 1.7 µM | Cc1noc(C)c1-c1cc(S(=O)(=O)NC2CCCC2)c2cc(-c3cnc(C)n3C)c(=O)[nH]c2c1 [Compound 30, N-cyclopentyl-3-(1,2-dimethyl-1H-imidazol-5-yl)-7-(3,5-dimethylisoxazol-4-yl)-2-oxo-1,2-dihydroquinoline-5-sulfonamide]
7.17 µM | 8.13 µM | Cc1noc(C)c1-c1cc(S(=O)(=O)N[C@@H]2CCC[C@@H]2C(=O)N2CCNCC2)c2cccnc2c1 [Compound 50, 7-(3,5-dimethylisoxazol-4-yl)-N-((1R,2S)-2-(piperazine-1-carbonyl)cyclopentyl) quinoline-5-sulfonamide]
0.705 µM | 0.473 µM | Cc1noc(C)c1-c1cc(S(=O)(=O)NC2CCCC2)c2cc(NCCOCCO)c(=O)[nH]c2c1 [Compound 91, N-cyclopentyl-7-(3,5-dimethylisoxazol-4-yl)-3-((2-(2-hydroxyethoxy)ethyl)amino)-2-oxo-1,2-dihydroquinoline-5-sulfonamide]
0.4 µM | 0.45 µM | Cc1noc(C)c1-c1cc(S(=O)(=O)NC2CCCC2)c2cc(N)c(=O)[nH]c2c1 [Compound 41, 3-amino-N-cyclopentyl-7-(3,5-dimethylisoxazol-4-yl)-2-oxo-1,2-dihydroquinoline-5-sulfonamide]
3.37 µM | 6.3 µM | COc1ccc2c(S(=O)(=O)NC3CCCC3)cc(-c3c(C)noc3C)cc2n1 [Compound 16, N-cyclopentyl-7-(3,5-dimethylisoxazol-4-yl)-2-methoxyquinoline-5 - sulfonamide]
8.95 µM | 11.4 µM | Cc1noc(C)c1-c1cc(S(=O)(=O)N[C@H](C)C(F)(F)F)c2cccnc2c1 [Compound 100, (R)-7-(3,5-dimethylisoxazol-4-trifluoropropan-2-yl)quinoline-5-sulfonamide]
13.7 µM | > 20 µM | Cc1noc(C)c1-c1cc(S(=O)(=O)N[C@@H](CC(C)(C)C)C(=O)N2CCNCC2)c2cccnc2c1 [Compound 81, (S)-N-(4,4-dimethyl-1-oxo-1-(piperazin-1-yl)pentan-2-yl)-7-(3,5-dimethylisoxazol-4-yl)quinoline-5-sulfonamide]
